Assay results published in patent publication US20080014187A1, “Compositions and Methods for Treating Hypertension and Inflammation” (priority 2006, published 2008).

Experiments:
serum IL-6 and TNF-alpha = details: reported in the literature; cited from earlier work
[1] = case study, patient with hypertension, blood pressure and side effects; type: in vivo, human; details: 30 mg CoQ10 at 9 AM, patient on 40 mg telmisartan in the evening; reading by 12 PM, from 140/90 at 8 AM
Protocol: Because of these drug side effects, the patient subsequently dropped the amlodipine and took only a 40 mg daily dose of telmisartan in the evening before retiring. […] On one day with a reading of 140/90 at 8 AM, the patient took 30 mg of CoQ10 at 9 AM and their blood pressure sharply dropped to 103/71 by 12 PM. The patient subsequently began taking 30 mg CoQ10 in the morning and evening along with the evening only dose of 40 mg telmisartan.

[2] = eight human clinical trials; cited from earlier work

COC1=C(OC)C(=O)C(C/C=C(\C)CC/C=C(\C)CC/C=C(\C)CC/C=C(\C)CC/C=C(\C)CC/C=C(\C)CC/C=C(\C)CC/C=C(\C)CC/C=C(\C)CCC=C(C)C)=C(C)C1=O [CoQ10, Coenzyme Q10]
serum IL-6 (serum IL-6 and TNF-alpha): reduces | serum TNF-alpha (serum IL-6 and TNF-alpha): reduces | blood pressure [1]: 103/71 | decrease of mean diastolic blood pressure [2]: 10 mm Hg | decrease of mean systolic blood pressure [2]: 16 mm Hg

CCOC(=O)[C@H](CCc1ccccc1)N[C@@H](C)C(=O)N1Cc2ccccc2C[C@H]1C(=O)O [quinapril]
serum IL-6 (serum IL-6 and TNF-alpha): lower | serum TNF-alpha (serum IL-6 and TNF-alpha): lower
